pKd: −log10 of the molar value. Read-outs that look alike come from different tables or passages of the source.

In test [1] the target is TEAD1 (Homo sapiens (Human), UniProt P28347). Put plainly: TEAD degradation assay, 6 h time point, cell line not stated. The format is cell-based. The note with it: after 6 h, read-out: degradation concentration, DC50, after 6 h. Here is the method: Degradation of TEAD isoform TEAD1 by exemplary compounds which has been determined at different time points in two different cell lines, SK-HEP1 and NCI-H226: For the assay, SK-HEP1 (ATCC HTB-52) and NCI-H226 (ATCC CRL-5826) cells were treated in duplicates with the test compounds in a 10-point dose, 1:3 dilution steps, with the top concentration starting at 30 uM (final concentration in assay). […] The primary antibody used was Anti-TEF1 (BD, 610293) and the secondary antibody used was Alexa Fluor® 488 Goat Anti-Mouse IgG (H+L) (Molecular Probes, A-11001). Finally, the cell nuclei were co-stained by Hoechst 33258 (Invitrogen, H-3569) and imaged using a high content imager. The amount of TEAD degradation was determined by quantifying the fluorescence intensity levels of Anti-TEF1 in each individual cell per well. DC50 was calculated using curve fitting software Genedata Screener. Cell media: The SK-HEP1 cells were cultured in the following media: MEM, +10% FCS, +1× GlutaMAX, +100 μM NEAA, +10 mM HEPES, +0.5% Pen/Strep. The NCI-H226 cells were cultured in the following media: RPMI 1640, +10% FBS, +1× GlutaMAX, +10 mM HEPES, +0.5% Pen/Strep.
TEAD1, sequence (P28347 whole entry, canonical isoform): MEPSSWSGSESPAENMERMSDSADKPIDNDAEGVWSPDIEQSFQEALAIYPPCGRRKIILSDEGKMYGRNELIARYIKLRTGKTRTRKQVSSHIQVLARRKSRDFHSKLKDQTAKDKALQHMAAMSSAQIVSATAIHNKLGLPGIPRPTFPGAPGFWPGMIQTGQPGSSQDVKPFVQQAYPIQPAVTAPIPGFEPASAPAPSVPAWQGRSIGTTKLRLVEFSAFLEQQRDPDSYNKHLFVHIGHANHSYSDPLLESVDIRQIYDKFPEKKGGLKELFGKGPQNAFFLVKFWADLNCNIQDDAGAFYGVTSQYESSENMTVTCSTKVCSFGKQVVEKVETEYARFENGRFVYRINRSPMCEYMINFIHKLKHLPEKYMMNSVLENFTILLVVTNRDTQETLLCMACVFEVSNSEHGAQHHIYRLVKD

Test [2] has as its target TEAD1 in SK-HEP1 cells (Homo sapiens (Human), UniProt P28347). Nature of the test: TEAD degradation in SK-HEP1 cell line (immunofluorescence). The test is classed as cell-based. In a few lines: (§1)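 SK-HEP1 and NCI-H226 cells were treated in duplicate for 16 or 24 h at 37 °C with compound (10 points, 1:3, top 30 µM final). After fixation, TEAD1 was immunostained with anti-TEF1 and per-cell fluorescence quantified by high-content imaging. DC50 from curve fitting.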

The target in test [3] is TEAD1 in NCI-H226 cells (Homo sapiens (Human), UniProt P28347). Put plainly: TEAD degradation in NCI-H226 cell line (immunofluorescence). The test is classed as cell-based. Summed up: as §1
TEAD1 in NCI-H226 cells, sequence (P28347 whole entry): as the sequence (P28347 whole entry, canonical isoform) above
In test [4] the target is T1, hsTEAD1 (209-426) (Homo sapiens (Human), UniProt P28347). Nature of the test: Surface Plasmon Resonance (SPR) assay. The format is binding. The note with it: Biacore 4000, 15° C., 1:1 Langmuir model, read-out: KD TEAD1 (209-426). Here is the method:
The kinetic and affinity parameters of protein-exemplary compound interactions were evaluated by SPR. hsTEAD1 (209-426) was immobilized onto a CM7 (Series S) sensor chip via the standard amine coupling procedure, at 15° C. Prior to immobilization, the carboxymethylated surface of the chip was activated with 400 mM 1-ethyl-3-(3-dimethylaminopropyl)-carbodiimide and 100 mM N-hydroxysuccinimide for 10 min. hsTEAD1 (209-426) was diluted to 11 μg/mL in 10 mM Bis-Tris at pH 6.5 and immobilized on the activated surface chip for 8 and 10 min, in order to reach 6000 to 9000 response units (RU). The remaining activated carboxymethylated groups were blocked with a 7 min injection of 1 M ethanolamine pH 8.5 after which the surface chip was washed with 0.5% (w/v) sodium dodecyl sulphate and 50 mM glycine. HBS-N, which consists of 10 mM HEPES pH 7.4 and 150 mM NaCl, was used as the background buffer during immobilization. Exemplary compounds were prediluted in DMSO, diluted 1:50 in running buffer (20 mM Tris pH 7.4, 150 mM NaCl, 1 mM DTT, 5 mM MgCl2, 0.1 mM EGTA, 0.05% CHAPS) and injected at ten different concentrations using two-fold dilution series, from 100 μM to 0.2 μM. A DMSO solvent correction (1%-3%) was performed to account for variations in bulk signal and to achieve high-quality data. Interaction analysis cycles consisted of a 240 sec sample injection (30 μL/min; association phase) followed by 600 sec of buffer flow (dissociation phase).
All sensorgrams were processed by first subtracting the binding response recorded from the control surface (reference spot), followed by subtracting of the buffer blank injection from the reaction spot. All datasets were fit to a simple 1:1 Langmuir interaction model to determine the kinetic rate constants, KD. Experiments were performed on a Biacore 4000 (Cytiva, Uppsala, Sweden) at 15° C. and the interactions were evaluated using the provided Biacore 4000 evaluation software.

Test [5] deals with hsTEAD3 (216-435) (Homo sapiens (Human), UniProt Q99594). Nature of the test: Thermal shift measurement / Differential Scanning Fluorimetry (DSF). The format is binding. The note with it: 100 uM compound, 2 hours at 4° C., triplicates; read-out: ΔTm TEAD3 216-435. The method, then: (§2) Interaction of exemplary compounds with the various TEAD isoforms TEAD1, TEAD2, TEAD3, and TEAD4 was performed in a DSF assay. YAP-binding domains (YBD) of the four isoforms were subcloned and heterogeneously expressed in E. coli as a host. Initial purification was perfomed by using affinity tags, which got removed by overnight protease treatment. Further purification of TEAD isoforms was performed by Size-Exclusion Chromatography (SEC). Target protein containing fractions were pooled, concentrated with an Amicon (10 KDa MWCO) and quantified using the Bradford assay. Exemplary compound testing in the DSF assay for determining the shift of the TEAD isoform melting temperatures has been performed as described below: DSF was performed in MicroAmpTM EnduraPlateTM Optical 96-Well Clear Reaction Plates (Applied Biosystems, Life Technologies, California, USA) using a QuantStudio 7 Flex Real-Time PCR System (Applied Biosystems). Protein samples were briefly centrifuged before preparation. The final reaction mixture (20 μL of total volume) contained 11.8 μM of […]1 (209-426), 7.3 μM of […]2 (217-447), 7.9 μM of […]3 (216-435) or 11.7 μM of […]4 (217-424), and 2 or 4-fold of Protein Thermal ShiftTM Dye (Applied Biosystems) diluted in protein buffer-20 mM Tris pH 8.0, 150 mM NaCl (+0.5 mM TCEP for TEAD1 experiments). Prior to the addition of the dye, proteins were incubated with either 1 μL DMSO 100% (apo) or 100 uM of each exemplary compound (1 μL at 2 mM in 100% DMSO added to the […] reaction mixture) for 2 hours at 4° C. The melting curve data was recorded from 25 to 90° C. with an increment rate of 0.016° C.s^-1. Excitation and emission filters were applied for Protein Thermal ShiftTM Dye (470 nm and 520 nm, respectively) and for ROX reference dye (580 nm and 623 nm, respectively). The melting temperatures (Tm) were obtained by calculating the midpoint of each transition, using the Protein Thermal Shift SoftwareTM version 1.3. The thermal stability effect of each compound (ΔTm) was calculated by subtracting the calculated Tm in presence and absence (apo) of compound. All samples were tested in triplicates.
hsTEAD3 (216-435), sequence (Q99594 216-435): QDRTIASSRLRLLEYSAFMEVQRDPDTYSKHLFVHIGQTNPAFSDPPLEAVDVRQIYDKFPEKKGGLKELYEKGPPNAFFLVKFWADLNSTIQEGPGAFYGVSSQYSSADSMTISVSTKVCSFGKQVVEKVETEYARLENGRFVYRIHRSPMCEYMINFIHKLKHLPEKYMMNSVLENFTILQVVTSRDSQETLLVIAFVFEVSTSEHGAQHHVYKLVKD

The target of test [6] is T1, hsTEAD1 (209-426). The description is as above. The test is classed as binding. Particulars: 100 uM compound, 2 hours at 4° C., triplicates; read-out: ΔTm TEAD1 (209-426). The method, then: as §2
The target in test [7] is hsTEAD4 (217-424) (Homo sapiens (Human), UniProt Q15561). The description is as above. The test is classed as binding. The note with it: 100 uM compound, 2 hours at 4° C., triplicates; read-out: ΔTm TEAD4 217-434. Here is the method:
as §2

Test [8] has as its target hsTEAD2 (217-447) (Homo sapiens (Human), UniProt Q15562). The test is described as above. The test is classed as binding. Particulars: 100 uM compound, 2 hours at 4° C., triplicates; read-out: ΔTm TEAD2 (217-447). The method, then:
as §2

[9] abbreviates: 24 h incubation, read-out: DC50 SK-HEP1 24 h.
Where [10] appears, read: 24 h incubation, read-out: DC50 NCI-H226 24 h.
[11] abbreviates: 24 hours, ranges, read-out: DC50 NCI-H226.

TEAD1 in SK-HEP1 cells, sequence (P28347 whole entry): as the sequence (P28347 whole entry, canonical isoform) above
T1 sequence (P28347 209-426): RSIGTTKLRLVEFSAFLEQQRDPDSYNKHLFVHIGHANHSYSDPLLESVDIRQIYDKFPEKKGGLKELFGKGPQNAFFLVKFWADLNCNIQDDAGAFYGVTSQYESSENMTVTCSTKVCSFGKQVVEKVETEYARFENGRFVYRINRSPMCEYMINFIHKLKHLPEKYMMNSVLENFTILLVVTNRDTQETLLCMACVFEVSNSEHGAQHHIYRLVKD
hsTEAD2 (217-447), sequence (Q15562 217-447): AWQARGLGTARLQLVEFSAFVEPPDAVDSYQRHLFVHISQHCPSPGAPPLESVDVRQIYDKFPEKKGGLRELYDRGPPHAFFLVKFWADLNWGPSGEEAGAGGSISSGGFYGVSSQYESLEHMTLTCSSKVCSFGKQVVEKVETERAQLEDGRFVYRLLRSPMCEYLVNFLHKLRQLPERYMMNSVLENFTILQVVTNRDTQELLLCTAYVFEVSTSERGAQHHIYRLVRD
hsTEAD4 (217-424), sequence (Q15561 217-434): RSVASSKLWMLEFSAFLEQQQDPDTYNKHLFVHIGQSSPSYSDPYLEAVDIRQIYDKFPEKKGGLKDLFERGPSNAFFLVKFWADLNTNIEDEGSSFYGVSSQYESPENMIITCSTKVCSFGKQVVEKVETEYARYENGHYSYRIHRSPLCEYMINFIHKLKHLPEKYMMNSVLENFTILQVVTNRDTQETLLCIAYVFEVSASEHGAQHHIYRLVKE

In the case of `Cc1ncsc1-c1ccc([C@H](C)NC(=O)[C@@H]2C[C@@H](O)CN2C(=O)[C@@H](NC(=O)CCCCCc2cn(CCCCCCCNC(=O)c3ccc4c(c3)c3cn(C)nc3n4-c3ccc(C(F)(F)F)cc3)nn2)C(C)(C)C)cc1` [Compound 29, (2S,4R)-1-[(2S)-3,3-dimethyl-2-(6-{1-[7-({2-methyl-8-[4-(trifluoromethyl)phenyl]-2H,8H-pyrazolo[3,4-b]indol-5-yl}formamido)heptyl]-1H-1,2,3-triazol-4-yl}hexanamido)butanoyl]-4-hydroxy-N-[(1S)-1-[4-(4-methyl-1,3-thiazol-5-yl)phenyl]ethyl]pyrrolidine-2-carboxamide], the DC50 in test [1] was 280 nM; in test [2] (16 h incubation, read-out: DC50 SK-HEP1 16 h) it was 220 nM; in test [2] (setting [9]) it was 280 nM; in test [2] (24 hours, ranges, read-out: DC50 SK-HEP1), 100 to 1000 nM; in test [3] (16 h incubation, read-out: DC50 NCI-H226 16 h), 200 nM; in test [3] (setting [10]), 300 nM. Further, the DC50 in test [3] (setting [11]) was 100 to 1000 nM.

As to `Cn1cc2c3cc(C(=O)NCCOCCOCCNC(=O)COc4cccc5c4C(=O)N(C4CCC(=O)NC4=O)C5=O)ccc3n(-c3ccc(C(F)(F)F)cc3)c2n1` (stereo not drawn) [Compound 5, 2-{[2-(2,6-dioxopiperidin-3-yl)-1,3-dioxo-2,3-dihydro-1H-isoindol-4-yl]oxy}-N-(2-{2-[2-({2-methyl-8-[4-(trifluoromethyl)phenyl]-2H,8H-pyrazolo[3,4-b]indol-5-yl}formamido)ethoxy]ethoxy}ethyl)acetamide], in test [4], the pKd is 5.72. In addition, the DC50 is 30000 nM in test [2] (setting [9]), 20000 nM in test [3] (setting [10]) and 9000 to 30000 nM in test [3] (setting [11]). Also, the ΔTm at 100 µM is 0.9 °C in test [5], 3.9 °C in test [6], 2.8 °C in test [7] and -0.1 °C in test [8].

The values are drawn from patent US20250032625A1, “HETEROBIFUNCTIONAL MOLECULES AS TEAD INHIBITORS” (Merck Patent GmbH, priority 2021, published 2025).
